{"source": "paper PMC5712521", "about": "“Dendrogenin A drives LXR to trigger lethal autophagy in cancers” (Nature Communications, 2017)", "key": {"primary AML cells [1]": {"system": "primary AML cells", "experiment": "Immunoblot densitometry in primary AML cells", "format": "cell-based, human", "settings": "5 µM DDA, 24 h", "experimental": "Immunoblotting was carried out as described previously. Proteins were separated on SDS-PAGE gels, electro-transferred onto polyvinylidene difluoride membranes and incubated overnight at 4 °C with the following antibodies: anti-Atg3, anti-Atg5 (D1G9), anti-Atg7 (D12B11), anti-Beclin (D40C5), anti-caspase-3 (Cell Signaling), anti-Bcl-2 (Millipore), anti-Bax (Millipore), anti-LC3 (Sigma-Aldrich), anti-LXRα (SantaCruz), anti-LXRβ (SantaCruz), anti-Nur77 (Active motif), anti-NOR1 (R&D systems), anti-PARP (Cell Signaling), anti-Vps34 (Cell Signaling), or anti-Actin (Millipore). For visualization, an ECL plus kit (Amersham Biosciences) was used, and chemiluminescence was measured by autoradiography (Supplementary Fig. 9). Specific bands were quantified with ImageQuant software.\nAML patient and normal bone marrow samples were obtained from patients in the Hematology Department of Toulouse (France), after obtaining consent in accordance with the Declaration of Helsinki[67], and according to institutional guidelines. Samples were stored at the INSERM-1037 HIMIP collection (no. DC-2008-307-CPTP1 HIMIP). For some experiments, fresh leukemic blasts recovered at diagnosis were immediately treated with DDA. In other cases, frozen cells were thawed in IMDM medium with 20% FBS. Patient characteristics are shown in supplementary data 1. Normal bone marrow cells were subjected to Ficoll-Paque density gradient separation to isolate mononuclear cells, followed by CD34+ cell separation using high-gradient magnetic-activated cell sorting, according to the manufacturer’s manual. The in vivo assays were performed with cryopreserved cells. […]\nAll data or images are\nrepresentative of 3 independent experiments."}, "HL60 cells": {"system": "HL60 cells", "experiment": "HL60 cells orthotopically engrafted (i.v.) into NSG mice", "format": "in vivo", "settings": "for reduction of the number of HL60 cells in bone marrow and brain / reduction of HL60 cell viability in bone marrow and brain: 16 days; for reduction of HL60 cell viability in bone marrow and brain: Annexin-V", "experimental": "The engraftment of human primary AML cells was performed on NSG mice. Briefly, human primary AML cells, HL60 cells or normal CD34+ cells were resuspended in PBS, and 0.8 × 10^6 to 2 × 10^6 viable trypan blue-negative cells were injected intravenously into NSG mice that had been previously irradiated for 24 h with 2.25 Gy. […] The viability of AML cells was established by quantifying the percentage of hCD45+CD33+Annexin-V- cells."}, "SKMEL-2 cells": {"system": "SKMEL-2 cells", "experiment": "DDA-induced cytotoxicity", "format": "cell-based", "settings": "Homo sapiens, SK-MEL-2; SKMEL-2 (H), BRaf WT; 72 h; read-out: Cytotox EC50", "experimental": "(§1) Melanoma cells were seeded into 6-well plates at 60,000 cells per well and AML cells at 250,000 cells/ml. The cells were then treated with control solvent vehicle (1/1000 ethanol in water) or DDA. Where indicated, treated cells were incubated in the presence or absence of each inhibitor for time shown. Cell death was determined by the trypan blue exclusion assay. Cells were scraped and resuspended in trypan blue solution (0.25% (w/v) in PBS) and counted in a Malassez cell under light microscopy. Cell viability was then quantified by counting viable (trypan blue-negative) and dead cells (trypan blue-positive). […]\n(§2) (cytotox) and clonogenicity (clono) inhibition in a subset of human (H) and mouse (M)\n(§3) m elanom a cell lines. T he BRaf status in m elanom a cells lines is shown. […]"}, "WM35 cells [2]": {"system": "WM35 cells", "experiment": "DDA-induced cytotoxicity", "format": "cell-based", "settings": "Homo sapiens; WM35 (H), BRaf V600E; 72 h; read-out: Cytotox EC50", "experimental": "as §1, §2, §3"}, "WM115 cells [3]": {"system": "WM115 cells", "experiment": "DDA-induced cytotoxicity", "format": "cell-based", "settings": "Homo sapiens, WM-115; WM115 (H), BRaf V600E; 72 h; read-out: Cytotox EC50", "experimental": "as §1, §2, §3"}, "WM-266-4 cells [4]": {"system": "WM-266-4 cells", "experiment": "DDA-induced cytotoxicity", "format": "cell-based", "settings": "Homo sapiens; WM-266-4 (H), BRaf WT; 72 h; read-out: Cytotox EC50", "experimental": "as §1, §2, §3"}, "A375 cells [5]": {"system": "A375 cells", "experiment": "DDA-induced cytotoxicity", "format": "cell-based", "settings": "Homo sapiens, A-375; A375 (H), BRaf V600E; 72 h; read-out: Cytotox EC50", "experimental": "as §1, §2, §3"}, "primary AML cells [6]": {"system": "primary AML cells", "experiment": "Patient-derived primary AML cells engrafted into NSG mice", "format": "in vivo", "settings": "three patients; 20 mg/kg/d i.p., 19 days", "experimental": "The engraftment of human primary AML cells was performed on NSG mice. Briefly, human primary AML cells, HL60 cells or normal CD34+ cells were resuspended in PBS, and 0.8 × 10^6 to 2 × 10^6 viable trypan blue-negative cells were injected intravenously into NSG mice that had been previously irradiated for 24 h with 2.25 Gy. Two and a half weeks after the injection of human cells, mice were treated with DDA (20 mg/kg/day by IP injection) or vehicle as control for 2, 3 weeks, after which the engraftment of human AML and normal hematopoietic cells was measured in the bone marrow, spleen and brain by quantifying the percentage of hCD45+CD33+ cells by flow cytometry. The viability of AML cells was established by quantifying the percentage of hCD45+CD33+Annexin-V- cells."}, "WM35 cells [7]": {"system": "WM35 cells", "experiment": "Clonogenicity inhibition", "format": "cell-based", "settings": "Homo sapiens; WM35 (H); 72 h; read-out: Clono IC50", "excerpt": "(§4) Supplementary Fig. 1. a DDA inhibited m elanom a colony form ation. Melanom a cells were […]\n(§5) a 0.5% solution of crystal violet in water and analyzed by microscopy. Images are representative of 5 independent experiments. b Evaluation of DDA-induced cytotoxicity (cytotox) and clonogenicity (clono) inhibition in a subset of human (H) and mouse (M) m elanom a cell lines. T he BRaf status in m elanom a cells lines is shown. […]"}, "WM115 cells [8]": {"system": "WM115 cells", "experiment": "Clonogenicity inhibition", "format": "cell-based", "settings": "Homo sapiens, WM-115; WM115 (H); 72 h; read-out: Clono IC50", "excerpt": "as §4, §5"}, "WM-266-4 cells [9]": {"system": "WM-266-4 cells", "experiment": "Clonogenicity inhibition", "format": "cell-based", "settings": "Homo sapiens; WM-266-4 (H); 72 h; read-out: Clono IC50", "excerpt": "as §4, §5"}, "A375 cells [10]": {"system": "A375 cells", "experiment": "Clonogenicity inhibition", "format": "cell-based", "settings": "Homo sapiens, A-375; A375 (H); 72 h; read-out: Clono IC50", "excerpt": "as §4, §5"}}, "data": [{"smiles": "CC(C)CCC[C@@H](C)[C@H]1CC[C@H]2[C@@H]3C[C@@H](NCCc4cnc[nH]4)[C@@]4(O)C[C@@H](O)CC[C@]4(C)[C@H]3CC[C@]12C", "note": "[DDA, Dendrogenin A]", "values": [{"measurement": "LC3-II protein, densitometry relative to vehicle", "setting": "primary AML cells [1]; AML#4", "value": 3.4}, {"measurement": "LXRβ protein, densitometry relative to vehicle", "setting": "primary AML cells [1]; AML#4", "value": 0.9}, {"measurement": "NOR1 protein, densitometry relative to vehicle", "setting": "primary AML cells [1]; AML#4", "value": 2}, {"measurement": "Nur77 protein, densitometry relative to vehicle", "setting": "primary AML cells [1]; AML#4", "value": 1.4}, {"measurement": "LC3-II protein, densitometry relative to vehicle", "setting": "primary AML cells [1]; AML#5", "value": 3}, {"measurement": "LXRβ protein, densitometry relative to vehicle", "setting": "primary AML cells [1]; AML#5", "value": 0.7}, {"measurement": "NOR1 protein, densitometry relative to vehicle", "setting": "primary AML cells [1]; AML#5", "value": 2.2}, {"measurement": "Nur77 protein, densitometry relative to vehicle", "setting": "primary AML cells [1]; AML#5", "value": 1.7}, {"measurement": "reduction of the number of HL60 cells in bone marrow and brain", "setting": "HL60 cells; 20 mg/kg/day i.p.", "value": "60.5 ± 11", "unit": "%"}, {"measurement": "reduction of HL60 cell viability in bone marrow and brain", "setting": "HL60 cells; 20 mg/kg/day i.p.", "value": "21.9 ± 6", "unit": "%"}, {"measurement": "reduction of the number of HL60 cells in bone marrow and brain", "setting": "HL60 cells; 40 mg/kg/day p.o.", "value": "47 ± 9", "unit": "%"}, {"measurement": "reduction of HL60 cell viability in bone marrow and brain", "setting": "HL60 cells; 40 mg/kg/day p.o.", "value": "17.3 ± 5", "unit": "%"}, {"measurement": "overall survival of HL60-engrafted mice", "setting": "HL60 cells; 40 mg/kg/day p.o., after disease establishment", "value": "significantly improved the survival"}, {"measurement": "EC50", "setting": "SKMEL-2 cells", "value": "2300 ± 100", "unit": "nM"}, {"measurement": "EC50", "setting": "WM35 cells [2]", "value": "1600 ± 100", "unit": "nM"}, {"measurement": "EC50", "setting": "WM115 cells [3]", "value": "2200 ± 200", "unit": "nM"}, {"measurement": "EC50", "setting": "WM-266-4 cells [4]", "value": "2700 ± 400", "unit": "nM"}, {"measurement": "EC50", "setting": "A375 cells [5]", "value": "1800 ± 200", "unit": "nM"}, {"measurement": "change in AML cell viability in bone marrow and spleen compared to controls", "setting": "primary AML cells [6]", "value": "−19.6 ± 7.6", "unit": "%"}, {"measurement": "change in number of AML cells in bone marrow and spleen compared to controls", "setting": "primary AML cells [6]", "value": "−57 ± 15", "unit": "%"}, {"measurement": "IC50", "setting": "WM35 cells [7]", "value": "1400 ± 200", "unit": "nM"}, {"measurement": "IC50", "setting": "WM115 cells [8]", "value": "1500 ± 300", "unit": "nM"}, {"measurement": "IC50", "setting": "WM-266-4 cells [9]", "value": "1200 ± 400", "unit": "nM"}, {"measurement": "IC50", "setting": "A375 cells [10]", "value": "1500 ± 300", "unit": "nM"}]}]}
